Data as given in article PMC13619035 (British Journal of Clinical Pharmacology, 2026).

Experiment: Single-dose pharmacokinetic study in healthy volunteers, plasma concentrations by LC-MS/MS
Type: in vivo, human
Conditions: single oral dose of 20 mg pantoprazole or 10 mg omeprazole, 20 healthy volunteers, fasted
Method: An open label, randomized, single‐dose pharmacokinetic study in healthy volunteers was conducted in cross‐over design.
The subjects presented to the study facilities fasted in the morning. Three hours after drug intake the subjects received a meal on both study days. […] Venous blood samples (7 mL each) were drawn into EDTA‐containing tubes. Blood samples were centrifuged immediately after blood sampling for 10 min at 2000g to generate blood plasma. Blood plasma was aliquoted and stored at −32 °C until analysis.
Probe drugs and metabolite concentrations were determined using a liquid‐chromatography tandem mass spectrometer (LC–MS/MS) system consisting of an Agilent 1290 Infinity II UHPLC coupled to a Sciex QTRAP6500 + triple quadrupole mass spectrometer.
The total chromatographic method length was increased from 8.5 to 8.8 min. […] Samples were vortexed for 10 s and centrifuged for 20 min at 17.000 x g and 4 °C. A total of 40 μl supernatant were diluted with 40 μl LC grade water, vortexed briefly and centrifuged again for 5 min at 17.000 x g and 4 °C.
The samples were vortexed for 10 s and centrifuged for 20 min at 4 °C and 17.000 x g. […]
The AUC0‐8h metabolic ratios (MR) were calculated as follows: AUC0‐8h MR = AUC0‐8h, metabolite/AUC0‐8h, substrate. […] Statistical significance was assessed using non‐parametric Kruskal‐Wallis test with Dunn's post hoc test. […]

tmax: 2 h
SMILES: COc1ccnc(C[S+]([O-])c2nc3ccc(OC(F)F)cc3[nH]2)c1OC (stereo not shown) [pantoprazole]
